# Results as given in patent publication US20190142718A1, “NOVEL USE” (DSM IP ASSETS B.V., priority 2017, published 2019).
# Assays:
# Assay in all cases: Antimicrobial efficacy, challenge test in analogy to NF EN ISO11930
# A. brasiliensis = assay type: cell-based, Aspergillus brasiliensis
# Description: (§1) The antimicrobial efficacy is assessed in analogy to the regulatory challenge test method (NF EN IS011930). Thus, a solution of 0.2 wt.-% of phytantriol in a physiological serum with 0.85 wt.-% NaCl supplemented with 10 wt.-% ethanol was prepared. A control was also prepared under sterile conditions based on a serum with 0.85 wt.-% NaCl and 10 wt.-% ethanol.
# (§2) The control as well as the phytantriol solution were deposed in 96-deep well plates (1.6 ml/well). The wells were contaminated with the respective bacterial or the fungal strains as outlined in table 1 at 2.5*10^5 to 5.6*10^5 cfu/ml for the bacteria and 1*10^4 to 2.5*10^4 cfu/ml for the fungi to obtain the initial contamination as outlined in table 1. After the contamination, each well was thoroughly mixed to ensure a homogeneous distribution of the microorganism. Then each plate was incubated at 22° C. for 24h. The counting of the (remaining) population was carried out 24h after contamination.
# P. Acnes = assay type: cell-based, Propionibacterium acnes
# Description: as §1, §2
# S. aureus = assay type: cell-based, Staphylococcus aureus
# Description: as §1, §2
# S. epidermidis = assay type: cell-based, Staphylococcus epidermidis
# Description: as §1, §2
# M. furfur = assay type: cell-based, Malassezia furfur
# Description: as §1, §2
# C. albicans = assay type: cell-based, Candida albicans
# Description: as §1, §2
compound,measurement,setting,value
"CC(C)CCCC(C)CCCC(C)CCCC(C)(O)C(O)CO (stereo not drawn) [Phytantriol, 3,7,11,15-tetramethyl-hexadecane-1,2,3-triol]",colony counts 24 h,"A. brasiliensis; 0.2 wt.-% phytantriol in 0.85 wt.-% NaCl serum with 10 wt.-% ethanol, 22° C., 24 h after contamination, 0 h count 10000, control 24 h 1000",10 cfu/ml
same,antimicrobial effect,"A. brasiliensis; against Aspergillus brasiliensis, 0.2 wt.-%, 24 h",significant antimicrobial effect
same,colony counts 24 h,"P. Acnes; 0.2 wt.-% phytantriol in 0.85 wt.-% NaCl serum with 10 wt.-% ethanol, 22° C., 24 h after contamination, 0 h count 310000, control 24 h 30000",28000 cfu/ml
same,antimicrobial effect,"P. Acnes; against Propionibacterium acnes, 0.2 wt.-%, 24 h",significant antimicrobial effect
same,colony counts 24 h,"S. aureus; 0.2 wt.-% phytantriol in 0.85 wt.-% NaCl serum with 10 wt.-% ethanol, 22° C., 24 h after contamination, 0 h count 250000, control 24 h 280000",0 cfu/ml
same,antimicrobial effect,"S. aureus; against Staphylococcus aureus, 0.2 wt.-%, 24 h",significant antimicrobial effect
same,colony counts 24 h,"S. epidermidis; 0.2 wt.-% phytantriol in 0.85 wt.-% NaCl serum with 10 wt.-% ethanol, 22° C., 24 h after contamination, 0 h count 560000, control 24 h 28000",0 cfu/ml
same,antimicrobial effect,"S. epidermidis; against Staphylococcus epidermidis, 0.2 wt.-%, 24 h",significant antimicrobial effect
same,colony counts 24 h,"M. furfur; 0.2 wt.-% phytantriol in 0.85 wt.-% NaCl serum with 10 wt.-% ethanol, 22° C., 24 h after contamination, 0 h count 4000, control 24 h 775",0 cfu/ml
same,antimicrobial effect,"M. furfur; against Malassezia furfur, 0.2 wt.-%, 24 h",significant antimicrobial effect
same,colony counts 24 h,"C. albicans; 0.2 wt.-% phytantriol in 0.85 wt.-% NaCl serum with 10 wt.-% ethanol, 22° C., 24 h after contamination, 0 h count 25000, control 24 h 5000",1000 cfu/ml
same,antimicrobial effect,"C. albicans; against Candida albicans, 0.2 wt.-%, 24 h",significant antimicrobial effect
